One test has as its target T1, Caspase-6 (Homo sapiens) (UniProt P55212).
T1 sequence (whole entry): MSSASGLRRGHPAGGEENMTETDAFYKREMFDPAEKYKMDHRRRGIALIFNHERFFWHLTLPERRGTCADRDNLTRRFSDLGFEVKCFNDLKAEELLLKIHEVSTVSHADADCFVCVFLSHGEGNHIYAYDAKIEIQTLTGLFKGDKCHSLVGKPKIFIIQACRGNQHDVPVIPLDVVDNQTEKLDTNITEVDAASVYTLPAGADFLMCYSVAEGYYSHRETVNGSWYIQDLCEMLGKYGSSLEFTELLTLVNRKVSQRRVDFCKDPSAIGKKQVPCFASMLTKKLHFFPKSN
Description: Inhibitory activity against caspase-6 (Csp-6).

In another test the target is Caspase-8 (Homo sapiens) (UniProt Q14790). In words: Inhibitory activity against caspase-8 (Csp-8).
The nature of test [1]: Cellular assay in a model of neuronal apoptosis involving cortical neurons exposed to concanavalin A. The format is functional.
The next test concerns the target T2, Caspase-3 (Homo sapiens) (UniProt P42574).
T2 sequence (whole entry): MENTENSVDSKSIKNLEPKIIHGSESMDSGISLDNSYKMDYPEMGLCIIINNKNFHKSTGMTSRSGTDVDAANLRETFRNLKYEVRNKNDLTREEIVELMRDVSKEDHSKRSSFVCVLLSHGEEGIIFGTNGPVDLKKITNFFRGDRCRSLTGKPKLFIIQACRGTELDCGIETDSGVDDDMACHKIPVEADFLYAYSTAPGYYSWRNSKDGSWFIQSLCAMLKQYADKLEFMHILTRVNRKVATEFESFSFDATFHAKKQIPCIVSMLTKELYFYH
In words: Inhibitory activity against caspase-3 (Csp-3).

The target in the next test is T3, Caspase-1 (Mus musculus) (UniProt P29452).
T3 sequence (whole entry): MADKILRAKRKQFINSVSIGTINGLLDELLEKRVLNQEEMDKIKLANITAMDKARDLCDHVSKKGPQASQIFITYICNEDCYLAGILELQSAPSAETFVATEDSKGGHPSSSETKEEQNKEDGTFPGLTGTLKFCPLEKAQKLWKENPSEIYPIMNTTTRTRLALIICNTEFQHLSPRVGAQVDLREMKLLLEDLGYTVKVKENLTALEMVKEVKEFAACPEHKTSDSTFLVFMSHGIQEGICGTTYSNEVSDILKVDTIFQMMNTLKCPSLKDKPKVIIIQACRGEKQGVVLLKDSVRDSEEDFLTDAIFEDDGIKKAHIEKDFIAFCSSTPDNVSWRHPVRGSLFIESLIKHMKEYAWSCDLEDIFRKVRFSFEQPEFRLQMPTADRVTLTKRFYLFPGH
Description: Inhibitory activity against murine caspase-1.

The species entered for the next test is Homo sapiens. In words: Cellular assay in an inflammation model measuring IL1-beta secretion from isolated human monocytes induced with Staph A. In kind it is functional.
A further test has as its system Jurkat. In words: Cellular assay in a Fas-induced model of apoptosis in Jurkat cells. Conditions: Homo sapiens. In kind it is functional, cell-based.

Experimental findings from ChEMBL document CHEMBL1136305, “Structure-activity relationships within a series of caspase inhibitors: effect of leaving group modifications” (Bioorg Med Chem Lett, 2003) are described below.

Caspase-8 (Homo sapiens), sequence (Q14790 217-374 limits assumed): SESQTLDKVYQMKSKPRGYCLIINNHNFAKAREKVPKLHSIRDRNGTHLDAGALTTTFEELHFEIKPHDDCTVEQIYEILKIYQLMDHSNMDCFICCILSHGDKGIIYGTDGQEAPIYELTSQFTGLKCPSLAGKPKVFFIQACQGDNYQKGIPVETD
Caspase-8 (Homo sapiens), sequence (Q14790 385-479 limits assumed): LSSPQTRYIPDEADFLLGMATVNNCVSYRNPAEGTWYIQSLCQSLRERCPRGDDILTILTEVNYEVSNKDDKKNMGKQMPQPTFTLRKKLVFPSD

For the compound `CC(C)[C@H](NC(=O)COc1cccc2ccccc12)C(=O)N[C@@H](CC(=O)O)C(=O)COc1cccc(F)c1F`, the k3/Ki at Caspase-6 (Homo sapiens) came to 1610 M⁻¹ s⁻¹; on Caspase-8 (Homo sapiens) it was 197 M⁻¹ s⁻¹; at Caspase-3 (Homo sapiens) it was 28800 M⁻¹ s⁻¹; on Caspase-1 (Mus musculus), 14800 M⁻¹ s⁻¹. Further, the IC50 in test [1] was found to be 5.2 µM.
In the case of `CC(C)[C@H](NC(=O)COc1cccc2ccccc12)C(=O)N[C@@H](CC(=O)O)C(=O)COc1ccccc1F`, the IC50 was 15.7 µM in the test filed under Homo sapiens, 15 µM in test [1] and above 100 µM in the test with Jurkat. Moreover, the k3/Ki at Caspase-8 (Homo sapiens) amounted to 233 M⁻¹ s⁻¹; at Caspase-3 (Homo sapiens), 26800 M⁻¹ s⁻¹; on Caspase-1 (Mus musculus), 6020 M⁻¹ s⁻¹.
Turning to `CC(C)[C@H](NC(=O)COc1cccc2ccccc12)C(=O)N[C@@H](CC(=O)O)C(=O)COc1ccc(F)cc1F`, the IC50 in the test listed under Homo sapiens is 17.6 µM; in test [1], above 50 µM; in the test on Jurkat it was 33.2 µM. Besides, the results for the k3/Ki on Caspase-8 (Homo sapiens), on Caspase-3 (Homo sapiens) and at Caspase-1 (Mus musculus) were 628 M⁻¹ s⁻¹, 21700 M⁻¹ s⁻¹ and 8400 M⁻¹ s⁻¹, respectively.
Take `CC(C)[C@H](NC(=O)COc1cccc2ccccc12)C(=O)N[C@@H](CC(=O)O)C(=O)COc1c(F)ccc(F)c1F`: the k3/Ki on Caspase-6 (Homo sapiens) came to 81700 M⁻¹ s⁻¹; at Caspase-8 (Homo sapiens) it was 17000 M⁻¹ s⁻¹; at Caspase-3 (Homo sapiens), 188000 M⁻¹ s⁻¹; on Caspase-1 (Mus musculus) it was 47100 M⁻¹ s⁻¹. Also, the IC50 in test [1] amounted to 2.43 µM; in the test with Jurkat, 1.2 µM.
In the case of `CC(C)[C@H](NC(=O)COc1cccc2ccccc12)C(=O)N[C@@H](CC(=O)O)C(=O)COc1cccc(C(F)(F)F)c1`, the IC50 in the test listed under Homo sapiens is 16.6 µM; in test [1], above 50 µM; in the test with Jurkat, above 100 µM. The results for the k3/Ki at Caspase-8 (Homo sapiens), at Caspase-3 (Homo sapiens) and at Caspase-1 (Mus musculus) were 150 M⁻¹ s⁻¹, 7980 M⁻¹ s⁻¹ and 2450 M⁻¹ s⁻¹, respectively.
As to `CC(C)[C@H](NC(=O)COc1cccc2ccccc12)C(=O)N[C@@H](CC(=O)O)C(=O)COc1ccc(OC(F)(F)F)cc1`, the k3/Ki at Caspase-6 (Homo sapiens) was 776 M⁻¹ s⁻¹; on Caspase-8 (Homo sapiens), 2420 M⁻¹ s⁻¹; on Caspase-3 (Homo sapiens), 10500 M⁻¹ s⁻¹; on Caspase-1 (Mus musculus) it was 2360 M⁻¹ s⁻¹. The IC50 was above 50 µM in test [1] and 29.1 µM with Jurkat.
With `CC(C)[C@H](NC(=O)COc1cccc2ccccc12)C(=O)N[C@@H](CC(=O)O)C(=O)COc1cc(C(F)(F)F)cc(C(F)(F)F)c1`, the k3/Ki came to 193 M⁻¹ s⁻¹ on Caspase-6 (Homo sapiens), 68 M⁻¹ s⁻¹ on Caspase-8 (Homo sapiens), 5350 M⁻¹ s⁻¹ on Caspase-3 (Homo sapiens) and 783 M⁻¹ s⁻¹ at Caspase-1 (Mus musculus). Further, the IC50 in test [1] is above 50 µM; with Jurkat, above 100 µM.
Regarding `CC(C)[C@H](NC(=O)COc1cccc2ccccc12)C(=O)N[C@@H](CC(=O)O)C(=O)COc1cccc(OC(F)(F)F)c1`, the results for the IC50 (in the test listed under Homo sapiens; in test [1]; in the test with Jurkat) were 15.4 µM, above 50 µM and above 100 µM, respectively. The k3/Ki is 359 M⁻¹ s⁻¹ at Caspase-8 (Homo sapiens), 30600 M⁻¹ s⁻¹ at Caspase-3 (Homo sapiens) and 1410 M⁻¹ s⁻¹ on Caspase-1 (Mus musculus).
On to `CC(=O)Nc1cccc(OCC(=O)[C@H](CC(=O)O)NC(=O)[C@@H](NC(=O)COc2cccc3ccccc23)C(C)C)c1`, for which the figures for the IC50 (in test [1]; in the test with Jurkat) were above 50 µM and above 100 µM, respectively. In addition, the k3/Ki at Caspase-3 (Homo sapiens) worked out at 4900 M⁻¹ s⁻¹; on Caspase-1 (Mus musculus), 612 M⁻¹ s⁻¹.
As for `CC(C)[C@H](NC(=O)COc1cccc2ccccc12)C(=O)N[C@@H](CC(=O)O)C(=O)COc1ccc(C(=O)c2ccccc2)cc1`, the k3/Ki was determined as 21 M⁻¹ s⁻¹ on Caspase-8 (Homo sapiens), 17700 M⁻¹ s⁻¹ on Caspase-3 (Homo sapiens) and 1520 M⁻¹ s⁻¹ at Caspase-1 (Mus musculus). This compound showed an IC50 in the test on Jurkat above 100 µM.
In the case of `CC(C)[C@H](NC(=O)COc1cccc2ccccc12)C(=O)N[C@@H](CC(=O)O)C(=O)COc1ccc(F)cc1`, the IC50 was 14.3 µM in the test filed under Homo sapiens, above 50 µM in test [1] and above 100 µM in the test on Jurkat. Besides, the k3/Ki on Caspase-8 (Homo sapiens) was 699 M⁻¹ s⁻¹; at Caspase-3 (Homo sapiens), 8560 M⁻¹ s⁻¹; on Caspase-1 (Mus musculus) it was 9120 M⁻¹ s⁻¹.
`CC(C)[C@H](NC(=O)COc1cccc2ccccc12)C(=O)N[C@@H](CC(=O)O)C(=O)COc1ccc(C(N)=O)cc1`: the k3/Ki on Caspase-6 (Homo sapiens) was found to be 744 M⁻¹ s⁻¹; at Caspase-3 (Homo sapiens), 17700 M⁻¹ s⁻¹; at Caspase-1 (Mus musculus), 3650 M⁻¹ s⁻¹. Further, the IC50 was above 50 µM in test [1] and above 100 µM in the test with Jurkat.

The term IC50 denotes the concentration needed to halve the response being measured. Low readings indicate inhibition by little substance, high ones a need for much substance.
